Measurements: paper PMC4513902, “Evaluation of a new radiolabeled bombesin derivative with ^99mTc as potential targeted tumor imaging agent” (Journal of Radioanalytical and Nuclear Chemistry, 2013)
Like-named read-outs stand apart in the source and are kept apart here.

What was measured:
[1] = system: human GRP receptor cell line PC-3; conditions: after 4 h in PC-3; previous compound; cited from earlier work
Description: Compare with our pervious compound [^99mTc-tricine-HYNIC^0-D-Tyr^6-D-Trp^8]

[2] = Radiochemical stability post labeling at room temperature; assay type: physicochemical
Human serum stability = assay type: in vitro ADME
Method: To 1 mL of freshly prepared human serum, we added 100 μl (14.8–29.6 MBq) radiolabeled BB derivative and mixture was incubated at 37 °C. 100 μl aliquots was removed and treated with 200 μl of ethanol at different times up to 24 h. Sample was centrifuged at 3,000 rpm for 15 min to precipitate serum proteins. The supernatant was filtered through a 0.20 μm pore filter and analyzed with RP-HPLC Gradient I to determine radiochemical stability.

PC-3 tumor cell = assay: Efflux of radiopeptide from PC-3 tumor cells; assay type: cell-based, human; conditions: after 4 h
[3] = system: human GRP receptor cell line PC-3; assay: Internalization assay in PC-3 cells; assay type: cell-based; conditions: 1 million cells per well, about 150 kBq (2.5 pmol total peptide) per well, acid resistant fraction, gamma counter
Method: The human androgen-independent prostate carcinoma cell line PC-3 was obtained from National Cell Bank of Iran (NCBI) affiliated to Pasteur Institute of Iran. The cells were grown in DMEM supplemented with 10 % (v/v) fetal bovine serum (FBS), 1 % L-glutamine (2 mM),1 % penicillin(100 IU/ml)/streptomycin(100 μg/ml) and 1 % amphotericin B(0.25 μg/ml). The cells were incubated at 37 °C in a humidified atmosphere containing 5 % CO2 and were subcultured weekly detaching with trypsin/EDTA solution (0.25 %).
Medium was removed from the 6-well plates contain PC-3 cells with density of 1 million cells per well and cells were washed once with 2 ml of internalization medium (DMEM with 1 % FBS). Furthermore, 1.5 ml internalization medium was added to each well, and the plates were incubated at 37 °C for about 1 h. Afterwards, about 150 kBq (2.5 pmol total peptide mass per well) was added to the medium, and the cells were incubated at 37 °C for various time periods. To determine nonspecific internalization, we incubated cells with the radioligand in the presence of 150 μl, 1 μmol/l Bombesin. The cellular uptake was stopped at appropriate time periods (30 min, 1 h, 2 h and 4 h) by removing medium from the cells and washing twice with 1 ml of ice-cold phosphate-buffered saline (PBS). […] The culture medium, the receptor-bound and internalized fractions were measured radiometrically in a gamma counter.

[4] = Biodistribution in nude mice bearing PC-3 tumors; assay type: in vivo, mouse
Method: Animal experiments were performed in compliance with the regulations of our institution and with generally accepted guidelines governing such a work. A suspension of human PC-3 cells (1 × 10^7) in PBS buffer was subcutaneously injected in the right flank of each nude mouse. Seven to 10 days after inoculation, the tumors were inducted and then an activity of 20 MBq (0.35 nmol) of ^99mTc-Bombesin was injected via the femoral vein. In order to determine the non-specific uptake of the radiopeptides, in receptor-positive organs, a group of 3 animals were injected with 100 μg cold peptide in 50 μl saline as a co-injection with the radiopeptides (blocked animals). After 1, 4 and 24 h, the mice in groups of 3 animals were scarified, organs of interest were collected, weighed and radioactivity was measured in a gamma counter. The percentage of the injected dose per gram (% ID/g) was calculated for each tissue.

[5] = 1 h after injection, nude mice with PC-3 tumor, 20 MBq (0.35 nmol) via femoral vein, n = 3
[6] = 4 h, unblocked vs. blocked mice, P < 0.05

Row | Substance | internalization into PC-3 cells [1] | time stable post labeling (radiochemical stability) [2] | radiochemical purity remaining in human serum (Human serum stability; after 24 h in freshly prepared human serum, 37 °C, 100 μl (14.8–29.6 MBq) in 1 mL serum, ethanol precipitation, RP-HPLC Gradient I) | time of good stability in human serum (Human serum stability; human serum at 37 °C, no significant impurities detected by HPLC) | efflux rate of radiopeptide from PC-3 tumor cell (PC-3 tumor cell) | internalization into PC-3 cells ([3]; 0.5 h incubation at 37 °C, mean ± SD) | internalization into PC-3 cells ([3]; 1 h incubation at 37 °C, three independent experiments with triplicates) | uptake in PC-3 tumor [4, 5] | uptake in pancreas [4, 5] | Reduction of uptake in pancreas by blocking with cold peptide [4, 6] | Reduction of uptake in tumor by blocking with cold peptide [4, 6]
1 | [^99mTc-tricine-HYNIC^0-D-Tyr^6-D-Trp^8] BB (6–14) | 10.7 ± 1.2% |  |  |  |  |  |  |  |  |  | 
2 | [^99mTc/tricine/HYNIC^0, D-Tyr^5-D-Tyr^6-D-Phe^13] Bombesin (5–14) NH2 [new bombesin derivative labeled with ^99mTc via HYNIC and tricine as a coligand] |  | ≥ 24 h | > 90% | at least 24 h | acceptable intercellular trapping | 2.3 ± 0.9% | 5.3 ± 1.1% | 2.11 ± 0.18 % ID/g | 1.78 ± 0.09 % ID/g | 76% | 82%
